Test system: cardiac organoid
Test: Drug reaction experiment: PIV-based contractility analysis of cardiac organoid treated with isoprenaline
Type: cell-based, human
Excerpt: Specifically, isoprenaline, which is a widely used […] (inotropic agent), is used to assess contractility of a cardiac organoid in response to drugs. […] As a result, the contraction-relaxation velocity profile and beating image of the cardiac organoids before drug treatment may be confirmed as shown in FIG. 10A and FIG. 10B, after drug treatment as shown in FIG. 10C and FIG. 10D, and 1 day after drug withdrawal as shown in FIG. 10E and FIG. 10F.

[1] = cardiac organoid, after treating for 15 minutes with isoprenaline, vs before drug treatment

CC(C)NCC(O)c1ccc(O)c(O)c1 (stereo not shown) [isoprenaline]
heart beating of the organoid (1 day after drug withdrawal): returned to before the drug treatment
average contraction duration [1]: reduced
contraction time to peak [1]: reduced
heart beating rate (cardiac organoid, after treating for 15 minutes with isoprenaline, vs before drug treatment (24.3±3.22 BPM)): increased significantly

Source: patent US20250265708A1, “METHOD AND SYSTEM FOR CONTRACTILITY ASSESSMENT OF CARDIAC ORGANOIDS BASED ON PARTICLE IMAGE VELOCIMETRY, PROGRAM FOR THE SAME, AND RECORDING MEDIUM STORING PROGRAM THEREOF” (Research & Business Foundation SUNGKYUNKWAN UNIVERSITY, priority 2024, published 2025)
